Biological target: T1, photosystem II D1 protein (PSBD1; psbA)
T1 construct: gene psbA1; psbA cloned BamHI/HindIII into pFastBac1; expressed in Sf9 insect cells; His-tagged (kept, captured on NTA sensor), Ni column from sonicated pellet supernatant; recombinant plasmid printed as 5238 bp, small for a full-length psbA insert; isolated D1 without other PSII subunits or cofactors; PDB 7ZCL is the docking model only
Test: biolayer interferometry (Octet R8, NTA sensor)
Assay type: binding
Details: PBS, 5% DMSO; analyte 1 mM; His-tagged protein immobilised on NTA sensor; read-out: affinity constant

## COC(=O)c1c([S+](C)[O-])[nH]c2ccccc12 (stereo not shown) [brassicanate A sulfoxide]
  Kd: 2690 µM

— publication PMC10889811, “Potential Candidate Molecule of Photosystem II Inhibitor Herbicide—Brassicanate A Sulfoxide” (International Journal of Molecular Sciences, 2024)
